Measured values published in patent publication US11952330B2, “Antibiotic ammonium compounds and methods for the treatment of bacterial infections” (priority 2019, dated 2024).

How the values were obtained:
[1] = test system: A. baumannii; assay: MIC by broth dilution, A. baumannii; type: cell-based; conditions: Acinetobacter baumannii; Mueller-Hinton broth, overnight 37° C.; Table 1; read-out: MIC (μg/mL) A. baumannii
Protocol: (§1) The antibacterial efficacy of the ammonium compounds was assessed. Minimum inhibitory concentrations (MICs) were determined by broth dilution method. Dilutions of each compound, ranging from 1 μg/mL to 256 μg/mL (final concentrations) were prepared in Mueller-Hinton broth. Compound dilutions were added to wells of a 96-well plate, with the concentration of the compound increasing 2-fold by row. Each well contained 5×10^5 CFU/ml of target bacterium in a total volume of 100 μl. Plates were incubated overnight at 37° C. The following day, plates were evaluated for a visual change in growth to determine the MIC. The concentration value corresponding to the first row that no longer had visible bacterial growth, as evaluated by turbidity in the wells, was recorded as the MIC. MIC values were representative of at least biological duplicates, each made up of technical triplicates. The antibacterial efficacy of ammonium compounds in the presence of human plasma was assessed. Minimum inhibitory concentrations (MICs) were determined by broth dilution method. Dilutions of each compound, ranging from 1 μg/mL to 256 μg/mL (final concentrations) were prepared in Mueller-Hinton broth. For the plasma containing samples, compound dilutions were made in Mueller-Hinton broth and supplemented with 5% (final %) human plasma (esterases). Compound dilutions were added to wells of a 96-well plate, with the concentration of the compound increasing 2-fold by row. Each well contained 5×10^5 CFU/mL of target bacterium in a total volume of 100 μL. Plates were incubated overnight at 37° C. The following day, plates were evaluated for a visual change in growth to determine the MIC. The concentration value corresponding to the first row that no longer had visible bacterial growth, as evaluated by turbidity in the wells, was recorded as the MIC. MIC values were representative of at least biological duplicates, each made up of technical triplicates.

[2] = test system: S. aureus; assay: MIC by broth dilution, S. aureus; type: cell-based; conditions: Staphylococcus aureus; Mueller-Hinton broth, overnight 37° C.; Table 1; read-out: MIC (μg/mL) S. aureus
Protocol: as §1

SMILES	MIC [1] [µg/mL]	MIC [2] [µg/mL]
CCCCCCCCOc1ccccc1C(=O)Nc1ccc(C(=O)OCC[N+](C)(CC)CC)cc1.[Br-] [Compound 10, N,N-diethyl-N-methyl-2-((4-(2-(octyloxy)benzamido)benzoyl)oxy)ethan-1-aminium bromide, reference compound]	3 to 30	3 to 30
CCCCCCCCOc1ccccc1C(=O)Nc1cccc(C(=O)OCC[N+](C)(CC)CC)c1.[Br-] [Compound 12, N,N-Diethyl-N-methyl-2-((3-(2-(octyloxy)benzamido)benzoyl)oxy)ethan-1-aminium bromide]	> 30	3 to 30
CCCCCCCCOc1ccccc1C(=O)Nc1ccccc1C(=O)OCC[N+](C)(CC)CC.[Br-] [Compound 13, N,N-Diethyl-N-methyl-2-((2-(2-(octyloxy)benzamido)benzoyl)oxy)ethan-1-aminium bromide]	> 30	3 to 30
CCCCCCCCOc1cccc(C(=O)Nc2ccc(C(=O)OCC[N+](C)(CC)CC)cc2)c1OCCCCCCCC.[Br-] [Compound 14, 2-((4-(2,3-Bis(octyloxy)benzamido)benzoyl)oxy)-N,N-diethyl-N-methylethan-1-aminium bromide]	> 30	> 30
CCCCCCCCOc1ccc(C(=O)Nc2ccc(C(=O)OCC[N+](C)(CC)CC)cc2)c(OCCCCCCCC)c1.[Br-] [Compound 15, 2-((4-(2,4-Bis(octyloxy)benzamido)benzoyl)oxy)-N,N-diethyl-N-methylethan-1-aminium bromide]	> 30	> 30
CCCCCCCCOc1ccc(OCCCCCCCC)c(C(=O)Nc2ccc(C(=O)OCC[N+](C)(CC)CC)cc2)c1.[Br-] [Compound 16, 2-((4-(2,5-Bis(octyloxy)benzamido)benzoyl)oxy)-N,N-diethyl-N-methylethan-1-aminium bromide]	> 30	> 30
CCCCCCCCOc1cc(OCCCCCCCC)cc(C(=O)Nc2ccc(C(=O)OCC[N+](C)(CC)CC)cc2)c1.[Br-] [Compound 18, 2-((4-(3,5-Bis(octyloxy)benzamido)benzoyl)oxy)-N,N-diethyl-N-methylethan-1-aminium bromide]	> 30	> 30
CCCCOc1ccccc1C(=O)Nc1ccc(C(=O)OCC[N+](C)(CC)CC)cc1.[Br-] [Compound 19, 2-((4-(2-Butoxybenzamido)benzoyl)oxy)-N,N-diethyl-N-methylethan-1-aminium bromide]	> 30	> 30
CCCCCOc1ccccc1C(=O)Nc1ccc(C(=O)OCC[N+](C)(CC)CC)cc1.[Br-] [Compound 20, N,N-Diethyl-N-methyl-2-((4-(2-(pentyloxy)benzamido)benzoyl)oxy)ethan-1-aminium bromide]	> 30	> 30
CCCCCCOc1ccccc1C(=O)Nc1ccc(C(=O)OCC[N+](C)(CC)CC)cc1.[Br-] [Compound 21, N,N-Diethyl-2-((4-(2-(hexyloxy)benzamido)benzoyl)oxy)-N-methylethan-1-aminium bromide]	> 30	3 to 30
CCCCCCCOc1ccccc1C(=O)Nc1ccc(C(=O)OCC[N+](C)(CC)CC)cc1.[Br-] [Compound 22, N,N-Diethyl-2-((4-(2-(heptyloxy)benzamido)benzoyl)oxy)-N-methylethan-1-aminium bromide]	> 30	3 to 30
CCCCCCCCCOc1ccccc1C(=O)Nc1ccc(C(=O)OCC[N+](C)(CC)CC)cc1.[Br-] [Compound 23, N,N-Diethyl-N-methyl-2-((4-(2-(nonyloxy)benzamido)benzoyl)oxy)ethan-1-aminium bromide]	3 to 30	3 to 30
CCCCCCCCCCOc1ccccc1C(=O)Nc1ccc(C(=O)OCC[N+](C)(CC)CC)cc1.[Br-] [Compound 24, 2-((4-(2-(Decyloxy)benzamido)benzoyl)oxy)-N,N-diethyl-N-methylethan-1-aminium bromide]	> 30	3 to 30
CCCCCCCCCCCOc1ccccc1C(=O)Nc1ccc(C(=O)OCC[N+](C)(CC)CC)cc1.[Br-] [Compound 25, N,N-Diethyl-N-methyl-2-((4-(2-(undecyloxy)benzamido)benzoyl)oxy)ethan-1-aminium bromide]	> 30	3 to 30
CCCCCCCCCCCCOc1ccccc1C(=O)Nc1ccc(C(=O)OCC[N+](C)(CC)CC)cc1.[Br-] [Compound 26, 2-((4-(2-(Dodecyloxy)benzamido)benzoyl)oxy)-N,N-diethyl-N-methylethan-1-aminium bromide]	> 30	3 to 30
CCCCCCCCCCCCCOc1ccccc1C(=O)Nc1ccc(C(=O)OCC[N+](C)(CC)CC)cc1.[Br-] [Compound 27, N,N-Diethyl-N-methyl-2-((4-(2-(tridecyloxy)benzamido)benzoyl)oxy)ethan-1-aminium bromide]	> 30	< 3
CCCCCCCCCCCCCCOc1ccccc1C(=O)Nc1ccc(C(=O)OCC[N+](C)(CC)CC)cc1.[Br-] [Compound 28, N,N-Diethyl-N-methyl-2-((4-(2-(tetradecyloxy)benzamido)benzoyl)oxy)ethan-1-aminium bromide]	> 30	3 to 30
CCCCCCCCOc1ccccc1C(=O)Nc1ccc(C(=O)OCC[N+](CC)(CC)CC)cc1.[Br-] [Compound 29, N,N,N-Triethyl-2-((4-(2-(octyloxy)benzamido)benzoyl)oxy)ethan-1-aminium bromide]	> 30	3 to 30
CCCCCCCCC[N+](CC)(CC)CCOC(=O)c1ccc(NC(=O)c2ccccc2OCCCCCCCC)cc1.[Br-] [Compound 30, N,N-Diethyl-N-(2-((4-(2-(octyloxy)benzamido)benzoyl)oxy)ethyl)nonan-1-aminium bromide]	> 30	3 to 30
CCCCCCCCOc1ccc(C(=O)Nc2ccc(C(=O)OCC[N+](C)(CC)CC)cc2)cc1.[Br-] [Compound 31, N,N-Diethyl-N-methyl-2-((4-(4-(octyloxy)benzamido)benzoyl)oxy)ethan-1-aminium bromide]	> 30	> 30
CCCCCCCCOc1cccc(C(=O)Nc2ccc(C(=O)OCC[N+](C)(CC)CC)cc2)c1.[Br-] [Compound 32, N,N-Diethyl-N-methyl-2-((4-(3-(octyloxy)benzamido)benzoyl)oxy)ethan-1-aminium bromide]	> 30	3 to 30
CCCCCCCCOc1ccccc1C(=O)Nc1ccc(C(=O)OCC[N+](CC)(CC)CCC)cc1.[Br-] [Compound 33, N,N-Diethyl-N-(2-((4-(2-(octyloxy)benzamido)benzoyl)oxy)ethyl)propan-1-aminium bromide]	3 to 30	< 3
CCCCCCCCOc1ccccc1C(=O)Nc1ccc(C(=O)OCC[N+](CC)(CC)CCCC)cc1.[Br-] [Compound 34, N,N-Diethyl-N-(2-((4-(2-(octyloxy)benzamido)benzoyl)oxy)ethyl)butan-1-aminium bromide]	3 to 30	< 3
CCCCCCCCOc1ccccc1C(=O)Nc1ccc(C(=O)OCC[N+](CC)(CC)CCCCC)cc1.[Br-] [Compound 35, N,N-Diethyl-N-(2-((4-(2-(octyloxy)benzamido)benzoyl)oxy)ethyl)pentan-1-aminium bromide]	3 to 30	< 3
CCCCCCCCOc1ccccc1C(=O)Nc1ccc(C(=O)OCC[N+](CC)(CC)CCCCCC)cc1.[Br-] [Compound 36, N,N-Diethyl-N-(2-((4-(2-(octyloxy)benzamido)benzoyl)oxy)ethyl)hexan-1-aminium bromide]	3 to 30	< 3
CCCCCCCCOc1ccccc1C(=O)Nc1ccc(C(=O)OCC[N+](CC)(CC)CCCCCCC)cc1.[Br-] [Compound 37, N,N-Diethyl-N-(2-((4-(2-(octyloxy)benzamido)benzoyl)oxy)ethyl)heptan-1-aminium bromide]	3 to 30	< 3
CCCCCCCCOc1ccccc1C(=O)Nc1ccc(C(=O)OCC[N+](CC)(CC)CCCCCCCC)cc1.[Br-] [Compound 38, N,N-Diethyl-N-(2-((4-(2-(octyloxy)benzamido)benzoyl)oxy)ethyl)octan-1-aminium bromide]	> 30	< 3
CCCCCCCCOc1ccccc1C(=O)Nc1ccc(C(=O)OCC[N+](CC)(CC)Cc2ccc([N+](=O)[O-])cc2)cc1.[Br-] [Compound 39, N,N-Diethyl-N-(4-nitrobenzyl)-2-((4-(2-(octyloxy)benzamido)benzoyl)oxy)ethan-1-aminium bromide]	> 30	3 to 30
CCCCCCCCOc1ccccc1C(=O)Nc1ccc(C(=O)OCC[N+](CC)(CC)Cc2cccc(C(F)(F)F)c2)cc1.[Br-] [Compound 40, N,N-Diethyl-2-((4-(2-(octyloxy)benzamido)benzoyl)oxy)-N-(3-(trifluoromethyl)-benzyl)ethan-1-aminium bromide]	> 30	< 3
